Data reported in patent US5618726A, “Biodegradable azo dyes” (priority 1994, dated 1997).
Values belong to the compound of their own block, whether it stands above or below them.

Key:
soil microflora = assay: Degradation of azo dyes by soil microflora; type: cell-based; conditions: water from a soil sample; for Dye mineralized by soil microflora: 14CO2 trapped; for Dye transformed by soil microflora: carbon source, air flow
Description: The degradation of azo dyes by soil microflora in general was evaluated by forming a mixture of azo dyes 33 and 34 with water from a soil sample. The soil sample contained soil microflora that had not adapted to using azo dyes as substrates. A carbon source was added to the mixture and a continuous air flow through the mixture was maintained. The ^14 CO2 released by the mixture was trapped using a 1N NaOH.

Streptomyces spp. = assay: Decolorization of naphthol azo dyes by Streptomyces spp.; type: cell-based
From the text: (§1) Microbiol., 1984, 130:2905-2913.
(§2) Replicate sterile controls also were run in each experiment.

[1] = system: Streptomyces chromofuscus; assay: Mineralization of 14C-labeled dyes by shaken cultures; type: cell-based; conditions: for Percentage of radioactivity recovered in CO2, Streptomyces chromofuscus / Percentage of radioactivity recovered in biomass (cells), Streptomyces chromofuscus / Percentage of radioactivity removed from the medium, Streptomyces chromofuscus: 21 days' growth, 50 mg/liter
Description: (§3) Agitated cultures containing 100,000 to 150,000 dpm of azo dye at a concentration of 200 mg/liter for P. chrysosporium and 50 mg/liter for S. chromofuscus were incubated at 37° C. for 20 days with shaking at 200 rpm. For each mineralization experiment six replicates-per-culture were run for P. chrysosporium and three replicates-per-culture for S. chromofuscus. Each culture flask contained a CO2 trap consisting of a small glass cup connected to the bottom of the rubber stopper. The cup contained 1 ml of 1N NaOH. Samples were taken every 2 days, and after each sampling cultures were flushed with 100% oxygen for 30 s. At the sampling time, the stopper was removed and the NaOH containing trapped CO2 was transferred to a 20-ml scintillation vial, and the cup was then rinsed twice with 1 ml of water. Two ml of rinse water were also transferred to the vial. Finally, 10 ml of Ecolite scintillation cocktail (ICN Biochemicals Inc., Irvine, Calif.) were added to each vial. Vials, after mixing, were stored in the dark for 24 h. The cpm of trapped radioactivity was then determined in a Packard Tri-Carb liquid scintillation analyzer, Model 1500, using the ^14 C quench standards and SIS numbers.
(§4) The removal of radioactivity from the media was determined by measuring the amount of ^14 C label in 0.1 ml of the medium at time 0 and 21 days for each culture. Uninoculated cultures were used as evaporation controls. […] At the end of each mineralization experiment, culture broths were acidified with 5 ml of 1M H3 PO4, fresh 1N NaOH was added to the trap, and the cultures were shaken overnight. No additional releases of ^14 CO2 were observed. The radioactivity assimilated by the cells was measured by solubilizing biomass harvested from each 21-day-old culture in an equal volume of hyamine hydroxide solution. Before solubilization, cells were washed three times with 50 ml of distilled water to remove adsorbed dyes. Ecolite 10 ml was added to the mixture, which was vortexed vigorously. To increase counting efficiency, the solution of biomass-hyamine-scintillation cocktail was further diluted 10 to 20 times with fresh Ecolite before counting.

P. chrysosporium = assay: as above; type: cell-based, Phanerochaete chrysosporium; conditions: for Percentage of radioactivity recovered in CO2, P. chrysosporium / Percentage of radioactivity recovered in biomass (cells), P. chrysosporium / Percentage of radioactivity removed from the medium, P. chrysosporium: 21 days' growth, 200 mg/liter
Description: as §3
Either a charcoal-containing polyurethane sponge (Bio-Rad Laboratories, Richmond, Calif.) or 2-methoxyethanol was used to trap volatile organic compounds released during mineralization experiments. The sponge (1 cm^3) replaced the 1N NaOH solution in the small glass cap attached to the rubber stopper; other conditions were as before for the ^14 CO2 experiments. For scintillation counting, the charcoal sponges were dissolved in 1 ml of hyamine hydroxide contained in scintillation vials (1M solution in methanol; NEN Research Products, Boston, Mass.) held at 55° C. for 2 h. Ten ml of Ecolite scintillation cocktail were then added and the cpm was measured.
In the second procedure, cultures with CO2 traps were flushed with oxygen for 10 min, and the organic volatiles present were trapped in 10 ml of 2-methoxyethanol mixed with 10 ml Ecolite.
as §4

ligninase = assay: Oxidation of dyes by P. chrysosporium ligninase (crude preparation); type: biochemical, Phanerochaete chrysosporium; conditions: for Oxidation / decolorization by ligninase: pH3, 0.2 mM hydrogen peroxide, 15-minute incubation
Outline: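 Crude P. chrysosporium ligninase oxidation of dyes, assayed by a previously reported method; conditions as for acid yellow 9, readings every 30 s for up to 15 minutes.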

Mn(II)-peroxidase [2] = assay: Oxidation of dyes by P. chrysosporium Mn(II)-peroxidase; type: biochemical, Phanerochaete chrysosporium; conditions: for Oxidation by manganese peroxidase: 15-minute incubation period
[3] = system: Phanerochaete chrysosporium; assay: Substrate removal / decolorization by P. chrysosporium culture; type: cell-based; conditions: for % Decolorization, P. chrysosporium: 14 days
Description: Environ. Microbiol., 1981, 42:290-296), with the addition of 75 mg adenine (6-aminopurine) and 27 mg L-phenylalanine-per-liter. This addition accelerated the growth of the fungus without inhibiting ligninase activity. […] […] Cultures were incubated at 37° C. for 7 to 15 days with shaking (250 rpm). Solid agar media were also employed.

S. diastaticus A13 = type: cell-based; conditions: streptomyces diastaticus a13 culture, 336 h
From the text: as §1, §2

S. badius 252 = type: cell-based; conditions: streptomyces badius 252 culture, 336 h
From the text: as §1, §2

S. rochei A10 = type: cell-based; conditions: streptomyces rochei a10 culture, 336 h
From the text: as §1, §2

S. diastaticus A12 = type: cell-based; conditions: streptomyces diastaticus a12 culture, 336 h
From the text: as §1, §2

S. rochei A14 = type: cell-based; conditions: streptomyces rochei a14 culture, 336 h
From the text: as §1, §2

S. chromofuscus A20 = conditions: streptomyces chromofuscus a20 culture, 336 h
Description: (§5) Each Streptomyces species was grown in a cotton-plugged 250 ml flask containing 25 ml of the following medium: 0.2M Tris buffer (pH 7.6), 100 ml; vitamin-free Casamino acids (Difco), 1.0 g; thiamine, 100 μg; biotin, 100 μg; D-glucose, 2 g; deionized water, 900 ml.
The dyes were filter-sterilized and added at 0.005% (w/v) to the autoclaved basal medium. Alternatively, azo dye stock solutions were sterilized by filtration (pore size 0.2 μm) and added to autoclaved basal medium at concentrations of 50 or 100 ppm. Three replicates of every culture were incubated, and each strain was grown in media supplemented individually with every substrate. Replicate sterile controls also were run in each experiment. Cultures were incubated at 37° C. for 14 days with shaking (200-250 rpm). Three replicates for each strain growth were incubated in only the basal medium as well.
A one ml sample of culture medium was centrifuged and then diluted 2.5-5.0 fold (actinomycete culture) or 5- to 10-fold (fungal culture) with distilled water. Alternatively, 1.0 ml of fungal supernatant was centrifuged and diluted 5-fold with 10 mM sodium 2,2-dimethylsuccinate buffer (DMS) of pH 4.5. Azo dye substrate present was then measured spectrophotometrically with a Hewlett-Packard 8452 diode array spectrophotometer operated by a PC Vectra computer equipped with HP's MS™-DOS/UV-VIS software. To be certain that changes in substrate spectra were not due to pH variations, the effects of pH on the visible absorption of each compound were also assayed within physiological pH range in the culture media. […] Thus, the spectrophotometric assays for the dyes were typically carried out at their isobestic points. For instance, the spectrophotometric assays were carried out at 450 nm for azo dye 1 and 400 nm for azo dye 2. […] The compounds were quantified by first developing standard curves of absorbance versus concentrations (0-50 μg) and then comparing measured absorbance values to the standard curves.

S. chromofuscus A11 = conditions: streptomyces chromofuscus a11 culture, 336 h
Description: as §1, §2
The Streptomyces were grown on the same media and under the same conditions as previously described. […] Thus, the spectrophotometric assays for substrates 1-12 were carried out at their specific isobastic points. Degradation was calculated as percent of substrates removed from culture broth, considering the evaporation factor (around 10%).

S. viridosporus T7A = conditions: streptomyces viridosporus t7a culture, 336 h
Description: as §5
The dyes were filter-sterilized and added at 0.005% (w/v) to the autoclaved basal medium. Alternatively, azo dye stock solutions were sterilized by filtration (pore size 0.2 μm) and added to autoclaved basal medium at concentrations of 50 or 100 ppm. Three replicates of every culture were incubated, and each strain was grown in media supplemented individually with every substrate. Replicate sterile controls also were run in each experiment. […] Three replicates for each strain growth were incubated in only the basal medium as well.
A one ml sample of culture medium was centrifuged and then diluted 2.5-5.0 fold (actinomycete culture) or 5- to 10-fold (fungal culture) with distilled water. Alternatively, 1.0 ml of fungal supernatant was centrifuged and diluted 5-fold with 10 mM sodium 2,2-dimethylsuccinate buffer (DMS) of pH 4.5. […] To be certain that changes in substrate spectra were not due to pH variations, the effects of pH on the visible absorption of each compound were also assayed within physiological pH range in the culture media. While the spectra of sulfanilic acid (Max abs at 250 nm), vanillic acid (Max abs at 252 nm and 286 nm) and acid yellow 9 (Max abs at 336 nm) were unaffected by pH over the tested pH range, the spectra of several novel azo dyes were changed as evidenced by shifts of their Absmax. Thus, the spectrophotometric assays for the dyes were typically carried out at their isobestic points. […] Spectrophotometric measurements were carried out at the absorbance maxima for azo dyes 16, 17, 18, 19, 31, and 32 (See Table 1 below). […] The compounds were quantified by first developing standard curves of absorbance versus concentrations (0-50 μg) and then comparing measured absorbance values to the standard curves.

[4] = molecular target: T1, horseradish peroxidase type II (Armoracia rusticana, UniProt P00433); assay: Oxidation of azo dyes by horseradish peroxidase preparation; type: biochemical; conditions: pH 8, 37° C., H2O2
T1 sequence (P00433 31-338): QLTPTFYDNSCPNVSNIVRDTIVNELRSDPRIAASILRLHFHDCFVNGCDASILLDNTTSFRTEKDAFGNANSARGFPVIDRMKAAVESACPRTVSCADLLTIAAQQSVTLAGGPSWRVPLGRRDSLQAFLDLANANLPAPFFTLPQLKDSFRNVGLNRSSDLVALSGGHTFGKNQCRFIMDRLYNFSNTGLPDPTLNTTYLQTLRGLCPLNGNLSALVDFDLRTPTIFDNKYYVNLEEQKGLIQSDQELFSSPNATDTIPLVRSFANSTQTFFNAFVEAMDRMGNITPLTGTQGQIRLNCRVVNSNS
Description: The reaction was started with the addition of 100 μl of 50 mM H2 O2 and was followed for 1 min at 37° C. Controls were run with no addition of H2 O2 or with the addition of the hemeperoxidase inhibitor KCN (final concentration 25 μM).

[5] = system: S. chromofuscus A11 extracellular peroxidase; assay: Oxidation of azo dyes by S. chromofuscus A11 crude enzyme preparation; type: biochemical, Streptomyces chromofuscus A11; conditions: pH 8, 37° C., H2O2
Outline: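 Enzyme from 48 h S. chromofuscus A11 culture supernatant, concentrated, ammonium sulfate-precipitated, dialyzed in 20 mM HEPES pH 8; yellow Sephadex G-25 fraction used. Reaction started with 100 μl 50 mM H2O2, followed 1 min at 37° C; controls without H2O2 or with 25 μM KCN.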

Mn(II)-peroxidase [6] = assay: Oxidation of dyes by P. chrysosporium Mn(II)-peroxidase; type: biochemical, Phanerochaete chrysosporium; conditions: crude enzyme, conditions specific for Mn(II)-peroxidase
[7] = p. chrysosporium culture, 168 h

- Dye mineralized by soil microflora (soil microflora): 1.1%
- Dye transformed by soil microflora (soil microflora): 3.4%
SMILES: Nc1ccc(N=N[14c]2[14cH][14cH][14c](S(=O)(=O)O)[14cH][14cH]2)cc1S(=O)(=O)O [compound 33]

SMILES: O=S(=O)(O)c1ccc2c(N=Nc3ccccc3)c(O)ccc2c1 [Azo dye 19, 1-phenylazo-2-hydroxynaphthalene-6-sulfonic acid]
- Decolorization by Streptomyces spp. (Streptomyces spp.): not

SMILES: COc1cc(N=N[14c]2[14cH][14cH][14c](S(=O)(=O)O)[14cH][14cH]2)ccc1O [compound 34]
- Mineralization by the streptomycetes ([1]; 21-day incubation): mineralized
- Radioactivity accounted for by dye absorbed by the cells ([1]; 21 days growth of S. chromofuscus): 9%
- Percentage of radioactivity recovered in CO2, Streptomyces chromofuscus [1]: ~4%
- Percentage of radioactivity recovered in biomass (cells), Streptomyces chromofuscus [1]: 4.6%
- Dye mineralized by soil microflora (soil microflora): 14%
- Dye transformed by soil microflora (soil microflora): 46%
- Percentage of radioactivity recovered in CO2, P. chrysosporium (P. chrysosporium): 25.7%
- Percentage of radioactivity recovered in biomass (cells), P. chrysosporium (P. chrysosporium): 5.2%
- Percentage of radioactivity removed from the medium, P. chrysosporium (P. chrysosporium): 31.7%
- Mineralization rate relative to dyes 33 and 35 (P. chrysosporium; first 10 days of incubation): twice as fast

- Oxidation / decolorization by ligninase (ligninase): transformed slowly
- Oxidation by manganese peroxidase (Mn(II)-peroxidase [2]): not detected
- Percent substrate removed, P. chrysosporium [3, 7]: 68%
SMILES: Nc1ccc(S(=O)(=O)O)cc1 [Sulfanilic acid, 4-Amino-[U-^14 C]benzenesulfonic acid]
- Percentage of radioactivity recovered in CO2, Streptomyces chromofuscus [1]: 0.0%
- Percentage of radioactivity recovered in biomass (cells), Streptomyces chromofuscus [1]: 0.0%
- Percentage of radioactivity removed from the medium, Streptomyces chromofuscus [1]: 0.0%
- Percentage of radioactivity recovered in biomass (cells), P. chrysosporium (P. chrysosporium): 1.3%
- Percentage of radioactivity removed from the medium, P. chrysosporium (P. chrysosporium): 25.0%
- Percentage of radioactivity recovered in CO2, P. chrysosporium (P. chrysosporium; listed as Sulfanilic Acid): 17.2%
- Percentage of radioactivity recovered in CO2, P. chrysosporium (P. chrysosporium; listed as sulfanilic acid): 17%
- Start of mineralization in the fungal culture (P. chrysosporium; P. chrysosporium): tenth day

- Percent substrate removed, S. diastaticus A13 (S. diastaticus A13): 21%
- Percent substrate removed, S. badius 252 (S. badius 252): 18%
- Percent substrate removed, S. rochei A10 (S. rochei A10): 74%
- Percent substrate removed, S. diastaticus A12 (S. diastaticus A12): 30%
- Percent substrate removed, S. rochei A14 (S. rochei A14): 72%
- Percent substrate removed, S. chromofuscus A20 (S. chromofuscus A20): 11%
- Percent substrate removed, S. chromofuscus A11 (S. chromofuscus A11): 89%
- Percent substrate removed, S. viridosporus T7A (S. viridosporus T7A): 9%
- Percent substrate removed, P. chrysosporium ([3]; growth period 7 days): 94%
SMILES: COc1cc(N=Nc2ccc(S(=O)(=O)O)cc2)ccc1O [Azo dye 2, 3-methoxy-4-hydroxy-azobenzene-4'-sulfonic acid]

- Amount of dye decolorized by ligninase (ligninase; out of 10 micrograms, 15 minutes, pH3, 0.6 units of enzyme): about 3 micrograms
- Oxidation by manganese peroxidase (Mn(II)-peroxidase [2]): not detected
- Percent substrate removed, P. chrysosporium [3, 7]: 79%
SMILES: Nc1ccc(N=Nc2ccc(S(=O)(=O)O)cc2)cc1S(=O)(=O)O [Azo dye 18, 4-amino-1,1'-azobenzene-3,4'-disulfonic acid]
- Percentage of radioactivity recovered in CO2, Streptomyces chromofuscus [1]: 0.0%
- Percentage of radioactivity recovered in biomass (cells), Streptomyces chromofuscus [1]: 0.0%
- Percentage of radioactivity removed from the medium, Streptomyces chromofuscus [1]: 0.0%
- Percentage of radioactivity recovered in CO2, P. chrysosporium (P. chrysosporium): 26.9%
- Percentage of radioactivity recovered in biomass (cells), P. chrysosporium (P. chrysosporium): 2.3%
- Percentage of radioactivity removed from the medium, P. chrysosporium (P. chrysosporium): 33.0%

- Oxidation rate of azo dyes, Horseradish peroxidase [4]: 8.24 μmoles per minute per ml
- Oxidation rate of azo dyes, S. chromofuscus peroxidase [5]: 1.78 μmoles per minute per ml
- Oxidation rate of azo dyes, P. chrysosporium Ligninase (ligninase; crude enzyme, conditions specific for ligninase): 0.44 μmoles per minute per ml
- Oxidation / decolorization by ligninase (ligninase): not detected
- Degradation by manganese peroxidase (HPLC, words) (Mn(II)-peroxidase [2]; one hour incubation): almost completely degraded
- Oxidation rate of azo dyes, P. chrysosporium Mn-peroxidase (Mn(II)-peroxidase [6]): 3.06 μmoles per minute per ml
- Degradation by Phanerochaete fungus ([3]; growth period of seven days, starting dye 150-200 ppm (FIG. 3), 10080 min): 90%
- % Decolorization, P. chrysosporium ([3]; initial concn 150 ppm): 99%
- % Decolorization, P. chrysosporium ([3]; initial concn 300 ppm): 62%
SMILES: COc1cc(N=Nc2ccc(N=Nc3ccc(S(=O)(=O)O)cc3)cc2S(=O)(=O)O)ccc1O [compound 1]

SMILES: O=S(=O)(O)c1ccc(N=Nc2c(O)ccc3ccccc23)cc1 [Azo dye 31, 4-(2-hydroxy-1-naphthylazo)benzenesulfonic acid]
- Decolorization by Streptomyces spp. (Streptomyces spp.): not

- Percent substrate removed, S. diastaticus A13 (S. diastaticus A13): 15%
- Percent substrate removed, S. badius 252 (S. badius 252): 9%
- Percent substrate removed, S. rochei A10 (S. rochei A10): 51%
- Percent substrate removed, S. diastaticus A12 (S. diastaticus A12): 27%
- Percent substrate removed, S. rochei A14 (S. rochei A14): 43%
- Percent substrate removed, S. chromofuscus A20 (S. chromofuscus A20): 1%
- Percent substrate removed, S. chromofuscus A11 (S. chromofuscus A11): 56%
- Percent substrate removed, S. viridosporus T7A (S. viridosporus T7A): 1%
- Percent substrate removed, P. chrysosporium ([3]; growth period 7 days): 93%
SMILES: COc1cc(N=Nc2ccc(N=Nc3ccc(S(=O)(=O)O)cc3)cc2S(=O)(=O)O)ccc1O [Azo dye 1, 4-(3-methoxy-4-hydroxyphenylazo)-azobenzene-3,4'-disulfonic acid]
